Data on 26 compounds can be found in publication PMC5407577, “Functional and genetic evidence that nucleoside transport is highly conserved in Leishmania species: Implications for pyrimidine-based chemotherapy” (International Journal for Parasitology: Drugs and Drug …, 2017).

The target of assay [1] is LmajNT1. Kind of assay: [3H]-thymidine uptake by L. major promastigotes. Format: cell-based, Leishmania major. As to the method: (§1) Using the standard uptake technique as described for T. brucei and Leishmania species ([Wallace et al., 2002], [Al-Salabi and De Koning, 2005], [Gudin et al., 2006]), the dose- or time-dependent uptake of radiolabeled permeants was investigated.
(§2) Briefly, cells in the mid-to-late logarithmic stage of growth were harvested by centrifugation for 10 min at 1500×g. The cells were washed twice with transport assay buffer (AB: 33 mM HEPES, 98 mM NaCl, 4.6 mM KCl, 0.55 mM CaCl2, 0.07 mM MgSO4, 5.8 mM NaH2PO4, 0.3 mM MgCl2, 23 mM NaHCO3, 14 mM glucose, pH 7.3), resuspended at a density of 10^8 cells ml^−1 in AB, and left for 20–30 min at room temperature to recover from centrifugation stress. One hundred microliters of cell suspension was incubated at ambient temperature for a predetermined time with 100 μl radiolabeled test compound, in the presence or absence of unlabeled substrate or other competitive inhibitors. The incubation was terminated by the addition of ice-cold stop solution (AB containing saturating levels, usually 10 mM, of unlabeled permeant) and centrifugation through oil for 1 min at 13,000 × g. […] Radioactivity was determined by liquid scintillation counting in a Beckman LS6000 TA scintillation counter. Saturation data, inhibition data, and time courses were plotted to equations for linear or non-linear regression (hyperbolic or sigmoid curves), as appropriate. All experiments were performed in triplicate and on at least three independent occasions.
Subsequent experiments were performed with a 5 min incubation time.

The subject of assay [2] is L. mexicana promastigotes WT. Briefly: Alamar blue drug sensitivity assay, L. mexicana WT. Type of assay: cell-based, Leishmania mexicana. The settings on record: Leishmania mexicana, 72 h, WT promastigotes, 72 h + 48 h with dye, n ≥ 4. As for the experimental part: (§3) Sensitivity assays of Leishmania strains to various drugs using the viability dye resazurin (Alamar Blue) (Sigma-Aldrich) were performed using a protocol adapted from [Räz et al. (1997)], as described ([Al-Salabi et al., 2003], [Gould et al., 2008]). Pentamidine and diminazene were used as non-nucleoside controls and were obtained from Sigma-Aldrich, as were many purines, pyrimidines, and analogs, with the exceptions of 2-thiouridine and 4-thiouridine (TriLink BioTechnologies, San Diego, CA); 5′-deoxyuridine, and 2′-3′-dideoxyuridine (Carbosynth, Compton, UK); 5-fluoro-2′-deoxyuridine (Fluka); and 2-thiouracil (ICN Biomedicals, Cambridge, UK). A preliminary promastigote culture was diluted to a density of 2 × 10^6 cells/ml, of which 100 μl was added to wells of 96-well plates pre-loaded with 100 μl of doubling dilutions of test compounds, resulting in a final density of 1 × 10^6 cells/ml; the dilutions were over 2 rows of the plate (23 concentrations), with the last well containing only medium and serving as the no-drug control. The plates were incubated at 25 °C for 72 h before adding the Alamar Blue dye (20 μl of 12.5 mg resazurin sodium salt (Sigma) in 100 ml phosphate buffered saline (PBS; pH 7.4)). Since Leishmania parasites metabolize the Alamar Blue dye slower than trypanosomes ([Gould et al., 2008]), the cells were incubated with the dye for a further period of 48 h before measuring the fluorescence, using a FLUOstar Optima fluorimeter (BMG Labtech) at wavelengths of 544 nm for excitation and 620 nm for emission. […] Each experiment was performed independently at least 4 times; statistical significance was determined using Student's unpaired t-test.
For orientation: Alamar Blue is a resazurin reagent that responds to reducing activity.

In assay [3] the test system is L. major promastigotes WT. Kind of assay: Alamar blue drug sensitivity assay, L. major WT. Type of assay: cell-based, Leishmania major. The settings on record: Leishmania major, WT promastigotes, 72 h + 48 h with dye, n ≥ 4. As for the experimental part:
as §3

The test system of assay [4] is Lmex5F2′dURes. Kind of assay: microbe, parasite or virus in culture. Format: cell-based, Leishmania mexicana. The following applies: for EC50: Leishmania mexicana; for RF (Resistance Factor = IC50 (resistant clone)/IC50 (WT)): Lmex5F2′dURes vs L. mexicana WT. As to the method: as §3
Assay [5] relates to Lmex5FURes. Kind of assay: microbe, parasite or virus in culture. Type of assay: cell-based, Leishmania mexicana. The settings on record: for EC50: Leishmania mexicana; for RF (Resistance Factor = IC50 (resistant clone)/IC50 (WT)): Lmex5FURes vs L. mexicana WT. As to the method:
as §3

Assay [6] relates to Lmaj5F2′dURes. Kind of assay: microbe, parasite or virus in culture. Type of assay: cell-based, Leishmania major. The settings on record: for EC50: Leishmania major; for RF (Resistance Factor = IC50 (resistant clone)/IC50 (WT)): Lmaj5F2′dURes vs L. major WT. As for the experimental part: as §3
Assay [7] has as its system Lmaj5FURes. Briefly: microbe, parasite or virus in culture. Format: cell-based, Leishmania major. The following applies: for EC50: Leishmania major; for RF (Resistance Factor = IC50 (resistant clone)/IC50 (WT)): Lmaj5FURes vs L. major WT. As to the method:
as §3

For assay [8], the target named is LmexNT1. Format: cell-based, Leishmania mexicana. As for the experimental part: as §1, §2
L. donovani is known to express one pyrimidine nucleoside transporter, LdNT1, which also transports adenosine ([Vasudevan et al., 1998], [De Koning et al., 2005]). In order to investigate whether this model held true for L. mexicana, the uptake of [^3H]-thymidine was studied. […] Care was taken throughout this study that whenever inhibition constants (Ki) or Michaelis-Menten constants (Km) were determined the conditions used had been verified to be well within the linear range of uptake.

In assay [9] the target is LmexNT1. Kind of assay: [3H]-adenosine uptake by L. mexicana promastigotes. Format: cell-based, Leishmania mexicana. The following applies: inhibition of 0.05 μM [3H]-adenosine uptake; read-out: Ki.
From the text: Using the standard uptake technique as described for T. brucei and Leishmania species ([Wallace et al., 2002], [Al-Salabi and De Koning, 2005], [Gudin et al., 2006]), the dose- or time-dependent uptake of radiolabeled permeants was investigated. The following radiolabels and specific activities were used: [^3H]-thymidine (Perkin Elmer; 56.6 Ci/mmol); [^3H]-adenosine (American Radiolabeled Chemicals UK; 40 Ci/mmol); [^3H]-uridine (American Radiolabeled Chemicals UK; 30 Ci/mmol); [^3H]-uracil (Perkin Elmer; 24.8 Ci/mmol); [^3H]-inosine (American Radiolabeled Chemicals UK; 20 Ci/mmol); [^3H]-5-fluorouracil (Moravek; 20 Ci/mmol).
as §2
We next investigated the transport of [^3H]-adenosine in L. mexicana promastigotes, which according to the efficient inhibition of [^3H]-thymidine by adenosine, should be taken up with high affinity.

Assay [10] deals with LmexNT1. Format: cell-based, Leishmania mexicana. As for the experimental part:
as §1, §2
This is another data set of the same source.

Assay [11] has as its target LmexUU1. Type of assay: cell-based, Leishmania mexicana. As to the method:
as §1, §2

The mark [12] stands for this setting: inhibition of 0.25 μM [3H]-thymidine uptake (total LmajNT1.1 + LmajNT1.2), 5 min.
Setting [13] is: inhibition of [3H]-uracil uptake, 4 min.

The Ki is the equilibrium dissociation constant of an inhibitor or competing ligand from its target. What is called EC50 is the midpoint of the concentration-response curve.

Molecules are shown by their SMILES. Read-outs that look alike come from different tables or passages of the source.

`O=c1ccn([C@@H]2O[C@H](CO)[C@@H](O)[C@H]2O)c(=S)[nH]1` [2-thiouridine]: the affinity in assay [1], expressed as Ki, was 765 ± 68 µM. In addition, the EC50 in [2] and in assay [3] (72 h) was greater than 5000 µM in each case.

In assay [1], `O=c1ccn([C@H]2CC[C@@H](CO)O2)c(=O)[nH]1` [2′,3′-dideoxyuridine] gave a Ki greater than 2500 µM. Moreover, the EC50 in assay [2] and in [3] (72 h) was greater than 5000 µM in each case.

`O=C1C=CN([C@@H]2O[C@H](CO)[C@@H](O)[C@H]2O)C(=O)C1` [3-deazauridine]: in assay [1] (setting [12]), the Ki stood at 3670 ± 420 µM.

As for `Cc1cn([C@H]2CC[C@@H](CO)O2)c(=O)[nH]c1=O` [3′-deoxythymidine], in [1] (setting [12]), the Ki came to 1250 ± 44.5 µM.

Consider `O=c1ccn([C@@H]2O[C@H](CO)C[C@H]2O)c(=O)[nH]1` [3′-deoxyuridine], for which the EC50 in assay [2] and in assay [3] (72 h) was greater than 5000 µM each time.

Turning to `O=c1[nH]c(=S)ccn1[C@@H]1O[C@H](CO)[C@@H](O)[C@H]1O` [4-thiouridine], the Ki in assay [1] (setting [12]) was found to be 69 ± 18.1 µM. Also, the EC50 in assay [2] and in [3] (72 h) was greater than 5000 µM in each case.

For `O=c1[nH]c(=O)n([C@H]2C[C@H](O)[C@@H](CO)O2)cc1Br` [5-bromo-2′-deoxyuridine], the EC50 in assay [2] and in assay [3] (72 h) was greater than 5000 µM in each case.

As for `O=c1[nH]cc(Br)c(=O)[nH]1` [5-bromouracil], the EC50 in assay [2] and in assay [3] (72 h) was greater than 5000 µM each time.

In the case of `O=c1[nH]c(=O)n([C@@H]2O[C@H](CO)[C@@H](O)[C@H]2O)cc1Br` [5-bromouridine], the half-maximal effective concentration (EC50) in [2] and in assay [3] (72 h) was greater than 5000 µM throughout.

For the compound `O=c1[nH]c(=O)n([C@H]2C[C@H](O)[C@@H](CO)O2)cc1Cl` [5-chloro-2′-deoxyuridine], the EC50 in [2] and in [3] (72 h) was greater than 5000 µM in each case.

Turning to `O=c1[nH]c(=O)n([C@@H]2O[C@H](CO)[C@@H](O)[C@H]2O)cc1Cl` [5-chlorouridine], the EC50 in assay [2] and in assay [3] (72 h) was greater than 5000 µM throughout.

Turning to `C[C@H]1O[C@@H](n2cc(F)c(=O)[nH]c2=O)[C@H](O)[C@@H]1O` [5-fluoro,5′-deoxyuridine], in assay [1] (setting [12]), the Ki came out at 168 ± 32 µM.

In the case of `Nc1nc(=O)n([C@@H]2O[C@H](CO)[C@@H](O)[C@H]2O)cc1F` [5-fluorocytidine], the EC50 in assay [2] and in assay [3] (72 h) was greater than 5000 µM in each case.

Take `Nc1nc(=O)[nH]cc1F` [5-fluorocytosine]: the EC50 in [2] and in [3] (72 h) was greater than 5000 µM each time.

In the case of `O=c1[nH]c(=O)n([C@H]2C[C@H](O)[C@@H](CO)O2)cc1I` [5-iodo-2′-deoxyuridine], the EC50 in assay [2] and in assay [3] (72 h) was greater than 5000 µM in each case.

For `O=c1[nH]c(=O)n([C@@H]2O[C@H](CO)[C@@H](O)[C@H]2O)cc1I` [5-iodouridine], the EC50 in [2] and in assay [3] (72 h) was greater than 5000 µM each time.

For the compound `Nc1nc(=O)n([C@H]2C[C@H](O)[C@@H](CO)O2)cc1F` [5F-2′dCtd, 5-Fluoro-2′-deoxycytidine], the EC50 is 17.3 ± 1.8 µM in assay [2] (read-out: EC50); greater than 5000 µM in assay [4]; 24 ± 0.9 µM in [5]; 38 ± 1.7 µM in [3] (read-out: EC50); 3870 ± 621 µM in assay [6]; 17 ± 1.8 µM in [7]. Further, the “RF (Resistance Factor = IC50 (resistant clone)/IC50 (WT))” value (shortened to “RF”) in assay [4] was greater than 290; in [5] it was 1.4; in [6], 101; in [7], 0.4.

On to `O=c1ccn([C@@H]2O[C@H](CF)[C@@H](O)[C@H]2O)c(=O)[nH]1` [5′-deoxy-5′-fluorouridine], for which the EC50 in [2] and in [3] (72 h) was greater than 5000 µM in each case.

`C[C@H]1O[C@@H](n2ccc(=O)[nH]c2=O)[C@H](O)[C@@H]1O` [5′dUrd, 5′-deoxyuridine]: the EC50 in assay [2] (read-out: EC50) was determined as 461 ± 80 µM; in [3] (read-out: EC50), 525 ± 46 µM.

Regarding `O=c1cn[nH]c(=O)[nH]1` [6-azauracil], the EC50 in assay [2] and in [3] (72 h) was greater than 5000 µM in each case.

For the compound `Nc1ccn([C@@H]2O[C@H](CO)[C@@H](O)[C@H]2O)c(=O)n1` [cytidine], the Ki in [8] (inhibition of 1 μM [3H]-thymidine uptake, 20 s) was 82 ± 5 µM; in assay [9], 149 ± 18 µM; in assay [10] (inhibition of 0.25 μM [3H]-uridine uptake in the presence of 1 mM uracil) it was 78.6 ± 15.1 µM; in [1] (setting [12]), 1150 ± 108 µM.

Regarding `Nc1cc[nH]c(=O)n1` [cytosine], in assay [11] (setting [13]), the Ki is greater than 5000 µM.

On to `N=C(N)c1ccc(/N=N/Nc2ccc(C(=N)N)cc2)cc1` [diminazene], for which the EC50 in [2] (read-out: EC50) turned out to be 7.4 ± 0.3 µM; in assay [4], 13.9 ± 1.9 µM; in assay [5] it was 7.2 ± 1.4 µM; in assay [3] (read-out: EC50), 9.8 ± 0.3 µM; in assay [6], 24.6 ± 1.5 µM; in assay [7], 10 ± 1.6 µM. Moreover, the “RF” value in assay [4] came out at 1.8; in assay [5] it was 0.97; in assay [6] it was 2.5; in assay [7], 1.02.

Turning to `O=c1[nH]cnc2nc[nH]c12` [hypoxanthine], the Ki in assay [8] is greater than 1000 µM; in assay [10], greater than 1000 µM; in assay [11] it was greater than 500 µM.

For `N=C(N)c1ccc(OCCCCCOc2ccc(C(=N)N)cc2)cc1` [pentamidine], the EC50 turned out to be 4.6 ± 0.2 µM in assay [2] (read-out: EC50), 5 ± 0.6 µM in assay [5] and 3.3 ± 0.2 µM in [3] (read-out: EC50). The “RF” value in assay [5] is 1.1.

As for `Cc1c[nH]c(=O)[nH]c1=O` [thymine], the Ki is 560 ± 190 µM in assay [11] (setting [13]) and greater than 1000 µM in assay [1] (setting [12]).
